Laboratory results: PMC7927014, “Novel Small Molecule Hsp90/Cdc37 Interface Inhibitors Indirectly Target K-Ras-Signaling” (Cancers, 2021)
Counter-ions that a name gives are not always drawn.

Columns and labels:
N-Hsp90/Cdc37 = molecular target: T1, N-Hsp90/Cdc37 (Homo sapiens, UniProt P07900); assay: N-Hsp90/Cdc37 split Renilla luciferase assay (N-terminal Hsp90 fragment, residues 1-223); type: biochemical; details: cell lysate
T1 construct: only the N-terminal ATP-ase domain of Hsp90 (N-Hsp90, residues 1-223); expressed in transfected cells; host or cells: HEK293 EBNA cells, cleared lysates
Description: (§1) The Hsp90/Cdc37 split Renilla luciferase assay using the full length Hsp90 for the compound screening was described previously. […] After 48 h, the cells were trypsinized and washed with PBS. The harvested cells were lysed in 1 mL of the 1x lysis buffer provided in the Renilla Luciferase Reporter Assay System Kit from Promega (cat. E2820), and were incubated on ice for 10 min. The cell lysates were then cleared by centrifugation at 13,000× g for 1 min. […] After this, the screening/test compounds or DMSO—as indicated—were added to each well. In total, 5 µL NRL-Hsp90- or NRL-N-Hsp90-lysate was added to each well, one row at a time. Subsequently, the plate was incubated for 5 min at room temperature (RT). […] Just before the reading, 20 µL assay buffer containing 2× Renilla luciferase substrate (coelenterazine) was added. For the FIMM screening, sample wells were read on a PHERAstar plate reader (BMG LABTECH) at a gain level of 4000, after 10 s shaking, using a hypomorph of NRL-Hsp90. For the subsequent validations of the compounds, sample wells with the above-described assay constructs were read using a synergy H1 Hybrid Multi-Mode reader (BioTek) in the luminescence detection mode, as described previously in detail.

Hsp90/Cdc37 [1] = molecular target: T2, Hsp90/Cdc37 (Homo sapiens, UniProt P07900); assay: Hsp90/Cdc37 split Renilla luciferase assay, full length Hsp90 (cell lysate; IC50 and 20 μM validation); type: biochemical; details: for normalized RLU / Average RLU: MolPort Screening-3, tested concentration of drugs 20 μM; for normalized RLU: RLU normalized to DMSO (=1.00); for Average RLU: average of 3 wells (DMSO 248028); for IC50: full length Hsp90, split Renilla luciferase assay, cell lysate
T2 construct: The Hsp90/Cdc37 split Renilla luciferase assay using the full length Hsp90 for the compound screening was described previously; expressed in transfected cells; host or cells: HEK293 EBNA cells, cleared lysates
Description: (§2) In the second in silico screening of the FIMM database, we employed the four identified chemical scaffolds (Figure S2B) for the visual inspection of the FIMM compound library. […] All of the purchased compounds were validated in vitro at 20 μM using the split Renilla luciferase assay.
as §1

Hsp90/Cdc37 [2] = assay: FIMM screening in split Renilla luciferase assay with hypomorphic NRL-Hsp90 construct, 20 μM; type: biochemical; details: for normalized RLU (FIMM Screening-2, scaffold based) / normalized RLU (FIMM Screening-1): DMSO = 1.00; for Average RLU (FIMM Screening-2, scaffold based) / Average RLU (FIMM Screening-1): mean of 3 wells; for Average RLU (FIMM Screening-2, scaffold based): DMSO 51006; for Average RLU (FIMM Screening-1): DMSO 50019
Description: as §2, §1

MDA-MB-231 cells = assay: Tumorosphere assay (low adhesion, serum-free 3D spheroid culture); type: cell-based; details: MDA-MB-231, 20 μM, 72 h
Description: (§3) Per well, 2000 cells were seeded in flat bottom 96-well suspension culture plates (cat. no. 655185, Cellstar, Greiner Bio-One) in 100 µL DMEM or RPMI media containing 1× B27 (cat. no. 17504044, Gibco, Thermo Fisher Scientific), 25 ng/mL EGF (cat. no. E9644, Sigma-Aldrich), and 25 ng/mL FGF (cat. no. RP-8628, Thermo Fisher Scientific), 20% MethoCult H4100 (cat. no. 04100, […] Technologies). After 2 days, 50 µL media containing 0.3% DMSO or 3× the concentration of the indicated compounds were added to the wells in a 1:2 dilution-series, starting at 100 µM. After 72 h of treatment, 10% (v/v) alamarBlue reagent (cat. no. DAL1100, Thermo Fisher Scientific) was added to each well. Then, the fluorescence intensity (excitation 560 nm and emission 590 nm) was measured after 4 h using a H1 Hybrid Multi-Mode reader (BioTek).

MIA PaCa-2 cells = assay: as above; type: cell-based; details: MIA PaCa-2, 20 μM, 72 h
Description: as §3

SK-BR-3 cells = assay: as above; type: cell-based; details: SK-BR-3, 20 μM, 72 h
Description: as §3

HCC-44 cells = assay: as above; type: cell-based; details: HCC-44, 20 μM, 72 h
Description: as §3

Hsp90α (N-terminal) = molecular target: T3, Hsp90α (N-terminal) (Homo sapiens, UniProt P07900); assay: Hsp90 N-terminal ATP-binding site competition assay (FITC-geldanamycin fluorescence polarization); details: 20 μM compound
T3 construct: purchased BPS Bioscience 50298
Description: The reaction was initiated by adding 35 ng/μL purified recombinant Hsp90α, and was incubated at RT with slow shaking for 2 h. All of the reactions were performed in a black, low binding NUNC microtiter plate, included in the kit, and the total reaction volume was 50 μL. The enzyme control was measured without the test compound, and the enzyme background control was measured without the test compound or Hsp90α. […] All of the controls and the blank contained 10% DMSO, as did all of the samples of the test compounds. All of the samples were analyzed as duplicates. […] The blank value was subtracted from all of the other values, and the fluorescence polarization was determined as:(1) mP = ((III − I⊥)/(III+ I⊥)) × 1000 where III is the intensity of the parallel, and I┴ the intensity of the perpendicular polarized light.

Compound | IC50 (N-Hsp90/Cdc37) [µM] | IC50 (Hsp90/Cdc37 [1]) [µM] | normalized RLU (FIMM Screening-1) (Hsp90/Cdc37 [2]) | Average RLU (FIMM Screening-1) (Hsp90/Cdc37 [2]) [RLU] | also measured
N=C(N)SCc1cc(=O)[nH]c(=O)[nH]1 [SC5, {[(2,6-dioxo-1,2,3,6-tetrahydropyrimidin-4-yl)methyl]sulfanyl}methanimidamide] | – | – | – | – | normalized RLU (FIMM Screening-2, scaffold based) (Hsp90/Cdc37 [2]): 0.39; Average RLU (FIMM Screening-2, scaffold based) (Hsp90/Cdc37 [2]): 19772 RLU
O=C(O)c1cc(S(=O)(=O)Nc2cccc(Cl)c2)ccc1O [SC22, 5-[(3-chlorophenyl)sulfamoyl]-2-hydroxybenzoic acid] | – | – | – | – | normalized RLU (FIMM Screening-2, scaffold based) (Hsp90/Cdc37 [2]): 0.73; Average RLU (FIMM Screening-2, scaffold based) (Hsp90/Cdc37 [2]): 37332 RLU
O=c1c(O)cc([C@H]2Oc3cc(O)cc(O)c3C[C@H]2O)cc2c([C@H]3Oc4cc(O)cc(O)c4C[C@H]3O)cc(O)c(O)c12 [compound 1, Theaflavin] | – | 29.3 | 0.25 | 12261 | –
O=C(O[C@@H]1Cc2c(O)cc(O)cc2O[C@@H]1c1cc(O)c(=O)c2c(O)c(O)cc([C@H]3Oc4cc(O)cc(O)c4C[C@H]3OC(=O)c3cc(O)c(O)c(O)c3)c2c1)c1cc(O)c(O)c(O)c1 [compound 2, Theaflavin 3,3-digallate] | 81 ± 16 | 75 ± 26 | 0.12 | 5883 | –
O=C(O[C@@H]1Cc2c(O)cc(O)cc2O[C@@H]1c1cc(O)c(O)c(O)c1)c1cc(O)c(O)c(O)c1 [compound 3, Epigallocatechin gallate] | 57 ± 14 | 88 ± 23 | 0.45 | 22619 | –
NC[C@@H]1O[C@H](O[C@H]2[C@@H](O)[C@H](O[C@@H]3[C@@H](O)[C@H](N)C[C@H](N)[C@H]3O[C@H]3O[C@H](CO)[C@@H](O)[C@H](O)[C@H]3N)O[C@@H]2CO)[C@H](N)[C@@H](O)[C@@H]1O [compound 6, Paromomycin sulfate, reference compound] | – | – | 0.67 | 33633 | –
Cc1ccc(Nc2ccc(C(=O)O)cc2N)cc1 [compound 7, 3-amino-4-(4-toluidino)benzoic acid] | 322 ± 50 | 177 ± 31 | 0.56 | 28120 | –
O=C(O[C@@H]1Cc2c(O)cc(O)cc2O[C@@H]1c1cc(O)c(=O)c2c(O)c(O)cc([C@H]3Oc4cc(O)cc(O)c4C[C@H]3O)c2c1)c1cc(O)c(O)c(O)c1 [compound 8, Theaflavin monogallates] | – | 14.1 | 0.25 | 12688 | –
Cc1cc(OCC(=O)Nc2ccccc2C(=O)O)cc(C)c1Cl [×1127, 2-[2-(4-chloro-3,5-dimethylphenoxy)acetamido]benzoic acid] | 11 ± 1 | 41 ± 10 | – | – | normalized RLU (FIMM Screening-2, scaffold based) (Hsp90/Cdc37 [2]): 0.66; Average RLU (FIMM Screening-2, scaffold based) (Hsp90/Cdc37 [2]): 33660 RLU
O=C(CSS(=O)(=O)O)Nc1cccc(C(F)(F)F)c1 [×1625, [({[3-(trifluoromethyl)phenyl]carbamoyl}methyl)sulfanyl]sulfonate] | 94 ± 3 | 41 ± 8 | – | – | effect on spheroid formation (MDA-MB-231 cells): did not decrease; effect on spheroid formation (MIA PaCa-2 cells): did not decrease; effect on spheroid formation (SK-BR-3 cells): did not decrease; effect on spheroid formation (HCC-44 cells): did not decrease; competition with FITC-geldanamycin (ATP-pocket binding, polarization signal) (Hsp90α (N-terminal)): None of these four compounds displaced; normalized RLU (Hsp90/Cdc37 [1]): 0.47; Average RLU (Hsp90/Cdc37 [1]): 117361 RLU
O=c1c(O)c(-c2ccc(O)c(O)c2)oc2cc(O)cc(O)c12 [×1742, 2-(3,4-dihydroxyphenyl)-3,5,7-trihydroxy-4H-chromen-4-one dihydrate (quercetin dihydrate)] | – | – | – | – | effect on spheroid formation (MDA-MB-231 cells): significantly increased; effect on spheroid formation (MIA PaCa-2 cells): significantly increased; effect on spheroid formation (SK-BR-3 cells): did not decrease; effect on spheroid formation (HCC-44 cells): did not decrease; competition with FITC-geldanamycin (ATP-pocket binding, polarization signal) (Hsp90α (N-terminal)): None of these four compounds displaced; normalized RLU (Hsp90/Cdc37 [1]): 0.40; Average RLU (Hsp90/Cdc37 [1]): 100349 RLU
NC(CSS(=O)(=O)O)=NCCC12CC3CC(CC(O)(C3)C1)C2 [×7648, 1-[2-[(1-amino-2-sulfosulfanylethylidene)amino]ethyl]-3-hydroxyadamantane] | 14 ± 4 | 18 ± 2 | 0.22 | 10978 | –
Enamine compound T5807719 [compound 4] | – | – | 0.48 | 24009 | –
Enamine compound T6605315 [compound 5] | – | – | 0.57 | 28274 | –

The next lines start with results.

IC50 (N-Hsp90/Cdc37) [µM] | IC50 (Hsp90/Cdc37 [1]) [µM] | normalized RLU (FIMM Screening-1) (Hsp90/Cdc37 [2]) | Average RLU (FIMM Screening-1) (Hsp90/Cdc37 [2]) [RLU] | Compound | also measured
4.8 ± 0.7 | 28 ± 4 | – | – | O=C(O[C@@H]1Cc2c(O)cc(O)cc2O[C@@H]1c1ccc(O)c(O)c1)c1cc(O)c(O)c(O)c1 [M15, (2R,3R)-2-(3,4-dihydroxyphenyl)-5,7-dihydroxy-3,4-dihydro-2H-1-benzopyran-3-yl 3,4,5-trihydroxybenzoate (epicatechin gallate)] | normalized RLU (Hsp90/Cdc37 [1]): 0.33; Average RLU (Hsp90/Cdc37 [1]): 80961 RLU
64 ± 9 | 72 ± 10 | – | – | O=C(CSc1nc2ccccc2s1)c1ccc(O)c(O)c1 [SC9, 2-(1,3-benzothiazol-2-ylsulfanyl)-1-(3,4-dihydroxyphenyl)ethan-1-one] | normalized RLU (FIMM Screening-2, scaffold based) (Hsp90/Cdc37 [2]): 0.64; Average RLU (FIMM Screening-2, scaffold based) (Hsp90/Cdc37 [2]): 32657 RLU
